In patent US4845093A, “N-benzoyl-N'-pyridazinyloxyphenyl urea compounds, and antitumorous compositions containing them, and process for their preparation” (Ishihara Sangyo Kaisha Ltd., priority 1984, dated 1989):
Where two headings read alike, the source gives them in different places.

Key:
p-388 leukemia cells [1] = assay: Antitumour activity, P-388 leukemia in BDF1 mice, intraperitoneal-intraperitoneal (Test Example 1); type: in vivo; conditions: Mus musculus, P388, ip, 720 h, read-out: ILS (Increase Life Span); for ILS at 200 mg/kg: 200 mg/kg/day i.p.; for ILS at 400 mg/kg: 400 mg/kg/day i.p.
Experimental: To BDF1 mice, p-388 leukemia cells were intraperitoneally inoculated in an amount of 1×10^6 cells/mouse. A test drug was intraperitoneally administered twice, i.e. one day and four days after the inoculation. […] The increase life span ILS (%)^* was obtained with the number of survival days of mice of the control group to which a physiological saline was administered, being evaluated as 100. The drugs were dispersions obtained by adding small amounts of surfactants (e.g. Tween-80) to the test compounds.
*ILS(%): Increase Life Span, calculated in accordance with the following
formula: ILS(%) = MST - 100, where MST is the ratio of median survival
time of test and control animals.

[2] = Acute toxicity in ddY mice, intraperitoneal; conditions: mouse, in vivo, ip, ddY mice (10 animals), formulated per Formulation Example 4
Experimental: To ddY mice (10 animals), a drug containing one of Compound Nos. 1-7 and 9-13 of the present invention formulated in accordance with Formulation Example 4 was intraperitoneally administered, and the LD50 value was measured and found to be at least 100 mg/kg in each case, and at least 50 mg/kg in the case of Compound Nos. 8 and 14 of the present invention.
(§1) The Compound No. 1 of the present invention was preliminarily pulverized by a centrifugal pulverizer. On the other hand, 5 parts by weight of polyoxyethylene (60) hardened castor oil, 0.2 part by weight of silicone and 0.3 part by weight of a polyoxyethylene-polyoxypropylene block polymer were added to 79.5 parts by weight of a physiological saline to obtain an aqueous solution, to which 10 parts by weight of the above pulverized Compound No. 1 of the present invention was added. The mixture was pulverized in a wet system by a sand mill using glass beads (80% of particles having a particle size of not larger than 2 μm). Then, 5 parts by weight of xanthane gum (2% solution) was added thereto to obtain an aqueous suspension.

p-388 leukemia cells [3] = assay: Antitumour activity, P-388 leukemia in BDF1 mice, intraperitoneal-oral (Test Example 2); type: in vivo; conditions: one and four days after i.p. inoculation, Formulation Example 4
Description: To BDF1 mice, p-388 leukemia cells were intraperitoneally inoculated in an amount of 1×10^6 cells/mouse. A test drug was orally administered twice i.e. one day and four days after the inoculation. […] The test drugs and comparative drugs were formulated in accordance with Formulation Example 4 given hereinafter.
*ILS(%), **Comparative Compound No. 1 and ***Comparative Compound No. 2
are the same as mentioned above in the notes of Table 1.
as §1

[4] = one and four days after i.p. inoculation, 30 days observation
[5] = 100 mg/kg/day i.p., one and four days after i.p. inoculation, 30 days observation

Compound	LD50 [2]	ILS at 200 mg/kg (p-388 leukemia cells [1]; [4])	also measured
O=C(NC(=O)c1ccccc1[N+](=O)[O-])Nc1ccc(Oc2ccc(Br)nn2)cc1 [Compound No. 7, N-(2-nitrobenzoyl)-N'-[4-(6-bromo-3-pyridazinyloxy)phenyl]urea]	≥ 100 mg/kg	–	ILS at 100 mg/kg (p-388 leukemia cells [1]): > 120%
O=C(NC(=O)c1ccccc1[N+](=O)[O-])Nc1ccc(Oc2ccc(Br)nn2)c(Cl)c1 [Compound No. 1, N-(2-nitrobenzoyl)-N'-[4-(6-bromo-3-pyridazinyloxy)3-chlorophenyl]urea]	≥ 100 mg/kg	178%	ILS (Increase Life Span) (p-388 leukemia cells [3]; 200 mg/kg/day oral): 58%
O=C(NC(=O)c1ccccc1[N+](=O)[O-])Nc1ccc(Oc2cccnn2)c(Cl)c1 [Compound No. 4, N-(2-nitrobenzoyl)-N'-[3-chloro-4-(3-pyridazinyloxy)phenyl]urea]	≥ 100 mg/kg	70%	–
Cc1cc(NC(=O)NC(=O)c2ccccc2[N+](=O)[O-])ccc1Oc1ccc(Cl)nn1 [Compound No. 13, N-(2-nitrobenzoyl)-N'-[4-(6-chloro-3-pyridazinyloxy)-3-methylphenyl]urea]	≥ 100 mg/kg	–	–
O=C(NC(=O)c1ccccc1[N+](=O)[O-])Nc1ccc(Oc2ccc(Cl)nn2)c(Cl)c1 [Compound No. 2, N-(2-nitrobenzoyl)-N'-[3-chloro-4-(6-chloro-3pyridazinyloxy)phenyl]urea]	≥ 100 mg/kg	71%	–
O=C(NC(=O)c1ccccc1Cl)Nc1ccc(Oc2ccc(Cl)nn2)c(Cl)c1 [Comparative Compound No. 1, N--(2chlorobenzoyl)-N'--[3chloro-4-(3-chloro-6-pyridazinyloxy)phenyl]urea, reference compound]	–	24%	ILS at 400 mg/kg (p-388 leukemia cells [1]; [4]): 42%; ILS (Increase Life Span) (p-388 leukemia cells [3]; 800 mg/kg/day oral): 10%
O=C(NC(=O)c1ccccc1[N+](=O)[O-])Nc1ccc(Oc2ccc(Cl)nn2)c(C(F)(F)F)c1 [Compound No. 8, N-(2-nitrobenzoyl)-N'-[4-(6-chloro-3-pyridazinyloxy)-3-trifluoromethylphenyl]urea]	≥ 50 mg/kg	–	ILS at 100 mg/kg (p-388 leukemia cells [1]; [5]): 75%
O=C(NC(=O)c1ccc([N+](=O)[O-])cc1[N+](=O)[O-])Nc1ccc(Oc2ccc(Cl)nn2)c(C(F)(F)F)c1 [Compound No. 14, N-(2,4-dinitrobenzoyl)-N'-[4-(6-chloro-3-pyridazinyloxy)-3-trifluoromethylphenyl]urea]	≥ 50 mg/kg	–	–
O=C(NC(=O)c1ccc(Cl)cc1[N+](=O)[O-])Nc1ccc(Oc2ccc(Br)nn2)c(Cl)c1 [Compound No. 10, N-(4-chloro-2-nitrobenzoyl)-N'-[4-(6-bromo-3-pyridazinyloxy)-3-chlorophenyl]urea]	≥ 100 mg/kg	–	ILS at 100 mg/kg (p-388 leukemia cells [1]): 111%; ILS (Increase Life Span) (p-388 leukemia cells [3]; 400 mg/kg/day oral): 32%
O=C(NC(=O)c1ccc([N+](=O)[O-])cc1[N+](=O)[O-])Nc1ccc(Oc2ccc(Br)nn2)c(Cl)c1 [Compound No. 11, N-(2,4-dinitrobenzoyl)-N'-[4-(6-bromo-3-pyridazinyloxy)-3-chlorophenyl]urea]	≥ 100 mg/kg	–	ILS at 100 mg/kg (p-388 leukemia cells [1]): 102%
O=C(NC(=O)c1ccccc1[N+](=O)[O-])Nc1ccc(Oc2ccc(C(F)(F)F)nn2)c(Cl)c1 [Compound No. 5, N-(2-nitrobenzoyl)-N'-[3-chloro-4-(6-trifluoro-methyl-3-pyridazinyloxy)phenyl]urea]	≥ 100 mg/kg	75%	–
O=C(NC(=O)c1ccccc1[N+](=O)[O-])Nc1ccc(Oc2ccc(Br)nn2)c(F)c1 [Compound No. 9, N-(2-nitrobenzoyl)-N'-[4-(6-bromo-3-pyridazinyloxy)-3-fluorophenyl]urea]	≥ 100 mg/kg	–	ILS at 100 mg/kg (p-388 leukemia cells [1]): 90%; ILS (Increase Life Span) (p-388 leukemia cells [3]; 200 mg/kg/day oral): 52%
O=C(NC(=O)c1ccccc1[N+](=O)[O-])Nc1ccc(Oc2ccc(Br)nn2)c(Br)c1 [Compound No. 6, N-(2-nitrobenzoyl)-N'-[3-bromo-4-(6-bromo-3-pyridazinyloxy)phenyl]urea]	≥ 100 mg/kg	–	–
O=C(NC(=O)c1ccccc1Cl)Nc1ccc(Oc2ccc(Cl)nn2)c(C(F)(F)F)c1 [Compound No. 12, N-(2-chlorobenzoyl)-N'-[4-(6-chloro-3-pyridazinyloxy)-3-trifluoromethylphenyl]urea]	≥ 100 mg/kg	–	–
O=C(NC(=O)c1ccccc1[N+](=O)[O-])Nc1ccc(Oc2ccc(I)nn2)c(Cl)c1 [Compound No. 3, N-(2-nitrobenzoyl)-N'-[3-chloro-4-(6-iodo-3-pyridazinyloxy)phenyl]urea]	≥ 100 mg/kg	–	ILS at 100 mg/kg (p-388 leukemia cells [1]; [5]): 92%
O=C(NC(=O)c1c(Cl)cccc1Cl)Nc1ccc(Oc2ccc(Cl)nn2)c(Cl)c1 [Comparative Compound No. 2, N--(2,6dichlorobenzoyl)-N'--[3chloro-4-(3-chloro-6-pyridazinyloxy)phenyl]rea, reference compound]	–	-3%	ILS at 400 mg/kg (p-388 leukemia cells [1]; [4]): 5%; ILS (Increase Life Span) (p-388 leukemia cells [3]; 800 mg/kg/day oral): 0%
O=c1[nH]cc(F)c(=O)[nH]1 [5-Fluorouracil, reference compound]	–	–	ILS at 60 mg/kg (p-388 leukemia cells [1]): 85%
